# Measured values from BigSolDB 2.1.
# [1] = in tetrachloromethane, 283.15 K
# [2] = in tetrachloromethane, 288.15 K
# [3] = in tetrachloromethane, 293.15 K
# [4] = in tetrachloromethane, 298.15 K
# [5] = in tetrachloromethane, 303.15 K
# [6] = in tetrachloromethane, 308.15 K
# [7] = in tetrachloromethane, 313.15 K
# [8] = in tetrachloromethane, 318.15 K
# [9] = in tetrachloromethane, 323.15 K
# [10] = in tetrachloromethane, 328.15 K
# [11] = in tetrachloromethane, 333.15 K
smiles,measurement,setting,value
c1ccc2c(c1)oc1ccccc12,solubility (mole fraction),"in diisopropyl ether, 283.15 K",0.0838
same,solubility (mole fraction),"in diisopropyl ether, 288.15 K",0.104
same,solubility (mole fraction),"in diisopropyl ether, 293.15 K",0.13
same,solubility (mole fraction),"in diisopropyl ether, 298.15 K",0.155
same,solubility (mole fraction),"in diisopropyl ether, 303.15 K",0.183
same,solubility (mole fraction),"in diisopropyl ether, 308.15 K",0.237
same,solubility (mole fraction),"in diisopropyl ether, 313.15 K",0.284
same,solubility (mole fraction),"in diisopropyl ether, 318.15 K",0.341
same,solubility (mole fraction),"in diisopropyl ether, 323.15 K",0.412
same,solubility (mole fraction),"in diisopropyl ether, 328.15 K",0.508
same,solubility (mole fraction),"in diisopropyl ether, 333.15 K",0.58
same,solubility (mole fraction),"in ethanol, 283.15 K",0.0211
same,solubility (mole fraction),"in ethanol, 288.15 K",0.0271
same,solubility (mole fraction),"in ethanol, 293.15 K",0.0322
same,solubility (mole fraction),"in ethanol, 298.15 K",0.0414
same,solubility (mole fraction),"in ethanol, 303.15 K",0.0489
same,solubility (mole fraction),"in ethanol, 308.15 K",0.0707
same,solubility (mole fraction),"in ethanol, 313.15 K",0.102
same,solubility (mole fraction),"in ethanol, 318.15 K",0.134
same,solubility (mole fraction),"in ethanol, 323.15 K",0.197
same,solubility (mole fraction),"in ethanol, 328.15 K",0.283
same,solubility (mole fraction),"in ethanol, 333.15 K",0.334
same,solubility (mole fraction),"in ethyl acetate, 283.15 K",0.145
same,solubility (mole fraction),"in ethyl acetate, 288.15 K",0.168
same,solubility (mole fraction),"in ethyl acetate, 293.15 K",0.199
same,solubility (mole fraction),"in ethyl acetate, 298.15 K",0.232
same,solubility (mole fraction),"in ethyl acetate, 303.15 K",0.269
same,solubility (mole fraction),"in ethyl acetate, 308.15 K",0.328
same,solubility (mole fraction),"in ethyl acetate, 313.15 K",0.387
same,solubility (mole fraction),"in ethyl acetate, 318.15 K",0.441
same,solubility (mole fraction),"in ethyl acetate, 323.15 K",0.502
same,solubility (mole fraction),"in ethyl acetate, 328.15 K",0.565
same,solubility (mole fraction),"in ethyl acetate, 333.15 K",0.625
same,solubility (mole fraction),"in n-butanol, 283.15 K",0.0281
same,solubility (mole fraction),"in n-butanol, 288.15 K",0.0326
same,solubility (mole fraction),"in n-butanol, 293.15 K",0.0421
same,solubility (mole fraction),"in n-butanol, 298.15 K",0.0531
same,solubility (mole fraction),"in n-butanol, 303.15 K",0.0671
same,solubility (mole fraction),"in n-butanol, 308.15 K",0.0877
same,solubility (mole fraction),"in n-butanol, 313.15 K",0.107
same,solubility (mole fraction),"in n-butanol, 318.15 K",0.166
same,solubility (mole fraction),"in n-butanol, 323.15 K",0.23
same,solubility (mole fraction),"in n-butanol, 328.15 K",0.364
same,solubility (mole fraction),"in n-butanol, 333.15 K",0.514
same,solubility (mole fraction),[1],0.134
same,solubility (mole fraction),[2],0.161
same,solubility (mole fraction),[3],0.191
same,solubility (mole fraction),[4],0.216
same,solubility (mole fraction),[5],0.264
same,solubility (mole fraction),[6],0.307
same,solubility (mole fraction),[7],0.354
same,solubility (mole fraction),[8],0.412
same,solubility (mole fraction),[9],0.491
same,solubility (mole fraction),[10],0.548
same,solubility (mole fraction),[11],0.635
same,solubility (mole fraction),"in toluene, 283.15 K",0.158
same,solubility (mole fraction),"in toluene, 288.15 K",0.185
same,solubility (mole fraction),"in toluene, 293.15 K",0.223
same,solubility (mole fraction),"in toluene, 298.15 K",0.266
same,solubility (mole fraction),"in toluene, 303.15 K",0.301
same,solubility (mole fraction),"in toluene, 308.15 K",0.344
same,solubility (mole fraction),"in toluene, 313.15 K",0.399
same,solubility (mole fraction),"in toluene, 318.15 K",0.455
same,solubility (mole fraction),"in toluene, 323.15 K",0.514
same,solubility (mole fraction),"in toluene, 328.15 K",0.582
same,solubility (mole fraction),"in toluene, 333.15 K",0.624
O=C1c2ccccc2-c2ccccc21,solubility (mole fraction),"in diisopropyl ether, 283.15 K",0.0297
same,solubility (mole fraction),"in diisopropyl ether, 288.15 K",0.0356
same,solubility (mole fraction),"in diisopropyl ether, 293.15 K",0.0426
same,solubility (mole fraction),"in diisopropyl ether, 298.15 K",0.0541
same,solubility (mole fraction),"in diisopropyl ether, 303.15 K",0.0642
same,solubility (mole fraction),"in diisopropyl ether, 308.15 K",0.0815
same,solubility (mole fraction),"in diisopropyl ether, 313.15 K",0.108
same,solubility (mole fraction),"in diisopropyl ether, 318.15 K",0.137
same,solubility (mole fraction),"in diisopropyl ether, 323.15 K",0.18
same,solubility (mole fraction),"in diisopropyl ether, 328.15 K",0.228
same,solubility (mole fraction),"in diisopropyl ether, 333.15 K",0.309
same,solubility (mole fraction),"in ethanol, 283.15 K",0.0209
same,solubility (mole fraction),"in ethanol, 288.15 K",0.0241
same,solubility (mole fraction),"in ethanol, 293.15 K",0.0301
same,solubility (mole fraction),"in ethanol, 298.15 K",0.043
same,solubility (mole fraction),"in ethanol, 303.15 K",0.0562
same,solubility (mole fraction),"in ethanol, 308.15 K",0.0976
same,solubility (mole fraction),"in ethanol, 313.15 K",0.144
same,solubility (mole fraction),"in ethanol, 318.15 K",0.207
same,solubility (mole fraction),"in ethanol, 323.15 K",0.292
same,solubility (mole fraction),"in ethanol, 328.15 K",0.409
same,solubility (mole fraction),"in ethanol, 333.15 K",0.548
same,solubility (mole fraction),"in ethyl acetate, 283.15 K",0.123
same,solubility (mole fraction),"in ethyl acetate, 288.15 K",0.142
same,solubility (mole fraction),"in ethyl acetate, 293.15 K",0.173
same,solubility (mole fraction),"in ethyl acetate, 298.15 K",0.221
same,solubility (mole fraction),"in ethyl acetate, 303.15 K",0.244
same,solubility (mole fraction),"in ethyl acetate, 308.15 K",0.284
same,solubility (mole fraction),"in ethyl acetate, 313.15 K",0.335
same,solubility (mole fraction),"in ethyl acetate, 318.15 K",0.395
same,solubility (mole fraction),"in ethyl acetate, 323.15 K",0.465
same,solubility (mole fraction),"in ethyl acetate, 328.15 K",0.548
same,solubility (mole fraction),"in ethyl acetate, 333.15 K",0.63
same,solubility (mole fraction),"in n-butanol, 283.15 K",0.0267
same,solubility (mole fraction),"in n-butanol, 288.15 K",0.0321
same,solubility (mole fraction),"in n-butanol, 293.15 K",0.0402
same,solubility (mole fraction),"in n-butanol, 298.15 K",0.0498
same,solubility (mole fraction),"in n-butanol, 303.15 K",0.0685
same,solubility (mole fraction),"in n-butanol, 308.15 K",0.0848
same,solubility (mole fraction),"in n-butanol, 313.15 K",0.126
same,solubility (mole fraction),"in n-butanol, 318.15 K",0.162
same,solubility (mole fraction),"in n-butanol, 323.15 K",0.236
same,solubility (mole fraction),"in n-butanol, 328.15 K",0.311
same,solubility (mole fraction),"in n-butanol, 333.15 K",0.4
same,solubility (mole fraction),[1],0.114
same,solubility (mole fraction),[2],0.142
same,solubility (mole fraction),[3],0.158
same,solubility (mole fraction),[4],0.192
same,solubility (mole fraction),[5],0.241
same,solubility (mole fraction),[6],0.291
same,solubility (mole fraction),[7],0.347
same,solubility (mole fraction),[8],0.403
same,solubility (mole fraction),[9],0.462
same,solubility (mole fraction),[10],0.519
same,solubility (mole fraction),[11],0.582
same,solubility (mole fraction),"in toluene, 283.15 K",0.12
same,solubility (mole fraction),"in toluene, 288.15 K",0.142
same,solubility (mole fraction),"in toluene, 293.15 K",0.164
same,solubility (mole fraction),"in toluene, 298.15 K",0.197
same,solubility (mole fraction),"in toluene, 303.15 K",0.228
same,solubility (mole fraction),"in toluene, 308.15 K",0.264
same,solubility (mole fraction),"in toluene, 313.15 K",0.315
same,solubility (mole fraction),"in toluene, 318.15 K",0.371
same,solubility (mole fraction),"in toluene, 323.15 K",0.41
same,solubility (mole fraction),"in toluene, 328.15 K",0.485
same,solubility (mole fraction),"in toluene, 333.15 K",0.55
